{
  "source": "patent EP1827382B1",
  "about": "“NOVEL GALENIC SYSTEM FOR ACTIVE PRINCIPLE TRANSPORT, PREPARATION METHOD AND USE” (Capsugel France, priority 2004, dated 2006)",
  "test": "Resistance test in acid medium (omeprazole content after neutralisation, over time)",
  "assay_type": "physicochemical",
  "settings": "stirred medium pH 1,2, 37,5°C; omeprazole assayed by HPLC after neutralisation to pH=6,8, over time; figure 1",
  "protocol": "Pour déterminer la résistance au pH acide, les préparations sont placées en milieu agité à pH 1,2 à 37,5°C. La résistance au pH acide est déterminée par le dosage du taux d'Oméprazole après neutralisation à pH=6,8 en fonction du temps.\nL'Oméprazole est dosée par HPLC après extraction.",
  "data": [
    {"molecule": "COc1ccc2[nH]c([S+]([O-])Cc3ncc(C)c(OC)c3C)nc2c1", "note": "(stereo not shown) [Oméprazole libre, Oméprazole]", "values": [
      {"measurement": "résistance au pH acide", "value": "dégradé en quelques minutes"}
    ]}
  ]
}
